Patent US12325866B2, “Systems and methods for growing cells in vitro” (Yissum Research Development Company of the Hebrew …, priority 2016, dated 2025)

Columns and labels:
CSIF [1] = assay: Serum-free medium development: sulforhodamine B stain and protein content after 72 hours; format: cell-based, chicken; conditions: for Effect on CSIF growth / proliferation: supplement added to minimal serum-free medium, bFGF 10 ng/ml, EGF 5 ng/ml, PGE2 0.01 μM, GH 10 ng/ml
Experimental: FIGS. 3A-F depict the development and identification of serum-free medium for CSIF propagation. Shown are sulforhodamine B stain (FIGS. 3A-E) and protein content quantification (FIG. 3F) following 72 hours of culture with 15% serum (“FBS”), minimal serum-free medium (MIN) alone (FIG. 3B) or with 10 ng/ml basic Fibroblast Growth Factor (bFGF, FIG. 3C), 5 ng/ml Epidermal Growth Factor (EGF, FIG. 3D), 0.01 μM Prostaglandin E2 (PGE2, FIG. 3E), or 10 ng/ml Growth Hormone. Serum-free medium (SFM) contained MIN medium supplemented with bFGF (10 ng/ml), EGF (5 ng/ml), and PGE2 ([…]).
(§1) To develop a serum-free medium that supports the culture of CEF and CS IF, the present inventor formulated a minimal medium composed of DMEM/F12 supplemented with 0.1 μM dexamethasone, 10 μg/ml insulin, 5.5 μg/ml transferrin, and 5 ng/ml selenium (ITS), 12 μM linoleic and 12 μM oleic acids, and 2 mM of L-Analyl-L-Glutamine. Cells were plated in FBS containing medium, and transferred to minimal medium after overnight attachment. Basal medium was supplemented with growth factors and hormones showing that while heparin and T3 had little effect of CSIF growth (data not shown), the addition of basic Fibroblast Growth Factor (bFGF, 10 ng/ml) was essential (FIGS. 3C and 3F), showing 20±2 hours doubling time (data not shown).

CSIF [2] = assay: Dox-induced MyoD1+MYOG conversion to myocytes, rMLC3-GFP reporter; format: cell-based, chicken; conditions: Dox-induced MyoD1+MYOG expression for 11 or 30 days
From the text: FIGS. 5A-E depict conversion of CSIF to myocytes. FIG. 5A—Phase image of CSIF expressing Dox-inducible MyoD1 and Myogenin (MYOG) for 6 days (“d6”). FIGS. 5B-C—CSIF expressing rat myosin light chain COP-GFP reporter (rMLC3-GFP) following Dox-induced MyoD1+MYOG expression for 11 days (FIG. 5B) or 30 days (FIG. 5C). About 2-4% of the cultures become positive for MLC3 (Green). MLC3 positive myoblasts maintain elongated fiber morphology for over 30 days in vitro (FIG. 5C). FIG. 5D—Fluorescence staining using phalloidin (F-Actin probe, green) showing multinucleated cells (syncytia) as well as some striation following 7 days in culture. Nuclei are stained with Hoechst (blue). FIG. 5E—Immunofluorescence staining for α1-skeletal muscle actin (ACTA1, green) and Troponin T (red) showing a clear muscle phenotype by day 7 of induction. Nuclei are stained with Hoechst (blue).
To examine if similar conversion of chicken cells to myocytes is possible, the present inventor generated several nucleic acid constructs (vectors) as is schematically illustrated in FIGS. 6-8 and 12. […] A second lentiviral vector (SEQ ID NO:2, FIG. 7) was created for Dox-inducible chicken MYOG expression included the cMyogenin coding sequence (SEQ ID NO: 7) under the control of the minimal CMV promoter (SEQ ID NO: 8). […]

[3] = tested on: primary chicken embryonic fibroblasts (CEF); assay: Proliferation of primary CEF in serum-free media / with supplements; format: cell-based; conditions: serum-free medium, or minimal medium plus supplement (EGF 5 ng/ml, PGE2 0.01 μM, GH 10 ng/ml)
Experimental: as §1, with “The CSIFs readily grow on tissue culture plastic in DMEM/F12 medium supplemented with 15% FBS, and 2 mM of […] (FIG. 2D). There are several serum-free medium formulations for the growth of human and mouse fibroblasts, including PCS-201-040 (ATCC) and […] To” for “To”, “[…].” for “L-Analyl-L-Glutamine.”

primary CEF = conditions: oleic acid 400 μM with 20% serum; selenium 100-300 μg/l with 2% serum; cited from earlier work
[4] = tested on: stromal-vascular cells derived from chicken adipose tissues; conditions: oleic acid 200-400 μM, in the presence of serum; cited from earlier work
CSIF [5] = assay: Conversion of CSIF to adipocytes in serum-free medium (LipidTOX neutral lipid stain); format: cell-based, chicken
Experimental: FIGS. 4A-D depict conversion of CSIF to adipocytes in serum-free medium. FIGS. 4A-C. LipidTOX™ (Thermo Fisher Scientific) neutral lipid stain of serum-free cultures of CSIF exposed to either 400 μM oleic acid (OA) alone (FIG. 4A) or with 0.5 mM IBMX (OA+IBMX, FIG. 4B), or 10 μM Rosiglitazone (OA+TZD, FIG. 4C) for 7 days. […] FIG. 4D—Normalized intracellular lipid content (in arbitrary fluorescent units) of CSIF cultures treated for 4 and 7 days as prescribed above.
To develop a protocol for conversion of the spontaneously immortalized chicken fibroblasts (CSIF line) under serum-free conditions, the present inventor seeded the CSIF at 70% confluence in the optimized serum-free DMEM/F12 medium supplemented with dexamethasone (0.1 μM), 1×ITS+3 (Sigma, 12771), and bFGF (10 ng/ml). The CSIF cells were treated for 4 or 7 days with 200 to 400 μM oleic acid alone, or in combination with 0.5 mM IBMX, or 10 μM of the FDA-approved small molecule Rosiglitazone.

Molecule: bFGF: basic fibroblast growth factor
- Doubling time (CSIF [1]; minimal medium plus bFGF 10 ng/ml (data not shown)): 20 ± 2 h
- Effect on CSIF growth / proliferation (CSIF [1]): essential

Molecule: C[C@H]1c2cccc(O)c2C(=O)C2=C(O)[C@]3(O)C(=O)C(C(N)=O)=C(O)[C@@H](N(C)C)[C@@H]3[C@@H](O)[C@@H]21 [doxycycline, Doxycycline]
- Cultures positive for MLC3 (CSIF [2]): 2-4%

Molecule: CCCCC[C@H](O)/C=C/[C@H]1[C@H](O)CC(=O)[C@@H]1C/C=C\CCCC(=O)O [PGE2, Prostaglandin E2]
- Proliferation of primary CEF [3]: supported the proliferation
- Effect on CSIF growth / proliferation (CSIF [1]): supported the proliferation

Molecule: N[C@@H](Cc1cc(I)c(Oc2ccc(O)c(I)c2)c(I)c1)C(=O)O [T3]
- Effect on CSIF growth / proliferation (CSIF [1]): little effect

Molecule: GH: Growth Hormone
- Proliferation of primary CEF [3]: supported the proliferation
- Effect on CSIF growth / proliferation (CSIF [1]): supported the proliferation

Molecule: CCCCCCCC/C=C\CCCCCCCC(=O)O [oleic acid]
- Lipid accumulation in primary CEF (primary CEF): induced lipid accumulation
- Differentiation of chicken preadipocytes to adipocytes [4]: induces their differentiation to adipocytes
- Lipid accumulation (CSIF [5]; 200 to 400 μM oleic acid, 4 or 7 days, serum-free): increased lipid accumulation

Molecule: heparin
- Effect on CSIF growth / proliferation (CSIF [1]): little effect

Molecule: CC(C)Cn1c(=O)n(C)c(=O)c2[nH]cnc21 [IBMX, 3-isobutyl-1-methylxanthine]
- Differentiation of chicken preadipocytes to adipocytes [4]: no affect
- Normalized intracellular lipid content (CSIF [5]; 4 and 7 days, 400 μM OA with small molecule (FIG. 4D)): optimal results
- Adipogenesis (neutral lipid stain) (CSIF [5]; 7 days, with 400 μM oleic acid, IBMX 0.5 mM, Rosiglitazone 10 μM): strong adipogenesis
- Adipogenic phenotype (cell shape) (CSIF [5]; added to oleic acid, IBMX 0.5 mM, Rosiglitazone 10 μM): supported a rounded adipogenic phenotype
